35 molecules from US6908935B2, “Calcium receptor modulating agents” (Amgen Inc., priority 2002, dated 2005) can be followed below.

Some results are limits rather than exact numbers.

The test deals with T1, human parathyroid cell Ca^2+ receptor (hPCaR) (Homo sapiens, UniProt P41180).
T1 construct: expressed in transfected cells
T1 sequence (P41180 20-1078): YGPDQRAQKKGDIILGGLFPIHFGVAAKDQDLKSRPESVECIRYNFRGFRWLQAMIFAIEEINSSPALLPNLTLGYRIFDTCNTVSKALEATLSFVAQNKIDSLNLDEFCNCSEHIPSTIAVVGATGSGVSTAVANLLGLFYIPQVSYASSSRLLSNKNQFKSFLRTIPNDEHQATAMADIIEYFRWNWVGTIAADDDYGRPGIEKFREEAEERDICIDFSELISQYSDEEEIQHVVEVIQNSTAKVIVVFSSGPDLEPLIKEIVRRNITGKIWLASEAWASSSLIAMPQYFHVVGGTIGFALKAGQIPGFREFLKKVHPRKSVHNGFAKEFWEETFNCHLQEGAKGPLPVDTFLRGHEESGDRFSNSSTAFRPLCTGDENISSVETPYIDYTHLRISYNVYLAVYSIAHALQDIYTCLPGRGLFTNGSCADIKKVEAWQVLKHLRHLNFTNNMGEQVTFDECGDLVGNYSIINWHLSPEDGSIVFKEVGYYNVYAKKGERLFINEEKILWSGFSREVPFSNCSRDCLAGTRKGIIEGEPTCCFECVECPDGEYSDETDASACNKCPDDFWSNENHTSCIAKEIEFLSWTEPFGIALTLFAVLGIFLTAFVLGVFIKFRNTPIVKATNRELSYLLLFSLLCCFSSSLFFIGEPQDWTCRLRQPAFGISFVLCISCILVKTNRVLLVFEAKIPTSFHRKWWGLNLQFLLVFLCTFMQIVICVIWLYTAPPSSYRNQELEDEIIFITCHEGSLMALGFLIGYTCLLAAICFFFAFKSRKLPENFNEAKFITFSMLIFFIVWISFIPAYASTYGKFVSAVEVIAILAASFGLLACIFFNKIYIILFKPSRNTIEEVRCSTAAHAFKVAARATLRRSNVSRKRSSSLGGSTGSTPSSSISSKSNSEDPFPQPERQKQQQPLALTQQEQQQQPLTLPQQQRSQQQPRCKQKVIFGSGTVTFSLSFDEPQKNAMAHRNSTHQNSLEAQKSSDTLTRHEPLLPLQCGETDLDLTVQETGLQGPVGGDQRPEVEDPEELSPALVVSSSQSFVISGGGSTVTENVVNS
Kind of test: [Ca2+]i measurement with fluo-3 in HEK 293 4.0-7 cells stably transfected with hPCaR. It counts as cell-based. Particulars: fluo-3 fluorescence (485/530 nm), effect on [Ca^2+]i. Put shortly: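 HEK 293 cells stably expressing human parathyroid Ca2+ receptor (clone 4.0-7), loaded with 2 μM fluo-3 AM for 30 min at 37 °C in parathyroid cell buffer (pH 7.45) with 1 mM CaCl2 and 0.5% BSA. After compound addition, intracellular Ca2+ followed by fluorescence at 485 nm excitation/530 nm emission.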
`COc1cccc([C@@H](C)NCc2ccc(OC)c(-c3ccc(C(F)(F)F)cc3)c2)c1` [(1R)-1-(3-(methyloxy)phenyl)-N-((6-(methyloxy)-4′-(trifluoromethyl)-1,1′-biphenyl-3-yl)methyl)ethanamine]: the concentration giving a half-maximal response (EC50) (as a rule, the concentration needed to bring the measured effect to its halfway point) was ≤ 10 µM.

In the case of `COc1ccc(CN[C@H](C)c2cccc(Cl)c2)cc1-c1ccccc1` [(1R)-1-(3-chlorophenyl)-N-((6-(methyloxy)-1,1′-biphenyl-3-yl)methyl)ethanamine], the EC50 is ≤ 10 µM.

With `COc1ccc(CN[C@H](C)c2cccc(Cl)c2)cc1-c1ccc(C(F)(F)F)cc1` [(1R)-1-(3-chlorophenyl)-N-((6-(methyloxy)-4′-(trifluoromethyl)-1,1′-biphenyl-3-yl)methyl)ethanamine], the EC50 was ≤ 10 µM.

For the molecule `COc1ccc(CN[C@H](C)c2cccc(F)c2)cc1-c1ccccc1` [(1R)-1-(3-fluorophenyl)-N-((6-(methyloxy)-1,1′-biphenyl-3-yl)methyl)ethanamine], the EC50 is ≤ 10 µM.

For the molecule `COc1ccc(CN[C@H](C)c2cccc(F)c2)cc1-c1ccc(S(C)(=O)=O)cc1` [(1R)-1-(3-fluorophenyl)-N-((6-(methyloxy)-4′-(methylsulfonyl)-1,1′-biphenyl-3-yl)methyl)ethanamine], the EC50 was ≤ 10 µM.

With `COc1ccc(CN[C@H](C)c2cccc(F)c2)cc1-c1ccc(C(F)(F)F)cc1` [(1R)-1-(3-fluorophenyl)-N-((6-(methyloxy)-4′-(trifluoromethyl)-1,1′-biphenyl-3-yl)methyl)ethanamine], the EC50 is ≤ 10 µM.

On to `COc1ccc([C@@H](C)NCc2cccc(-c3cnccn3)c2)cc1` [(1R)-1-(4-(methyloxy)phenyl)-N-((3-(2-pyrazinyl)phenyl)methyl)ethanamine], for which the concentration for a half-maximal effect (EC50) was ≤ 10 µM.

For `COc1ccc([C@@H](C)NCc2cccc(-c3ccccn3)c2)cc1` [(1R)-1-(4-(methyloxy)phenyl)-N-((3-(2-pyridinyl)phenyl)methyl)ethanamine], the EC50 is ≤ 10 µM.

As for `COc1ccc([C@@H](C)NCc2cccc(-c3ccc(OC)nn3)c2)cc1` [(1R)-1-(4-(methyloxy)phenyl)-N-((3-(6-(methyloxy)-3-pyridazinyl)phenyl)methyl)ethanamine], the half-maximal effective concentration (EC50) is ≤ 10 µM.

For the molecule `COc1ccc([C@@H](C)NCc2cccc(-c3ccc(C)nc3)c2)cc1` [(1R)-1-(4-(methyloxy)phenyl)-N-((3-(6-methyl-3-yridinyl)phenyl)methyl)ethanamine], the EC50 is ≤ 10 µM.

Consider `COc1ccc([C@@H](C)NCc2ccc(OC)c(-c3nccs3)c2)cc1` [(1R)-1-(4-(methyloxy)phenyl)-N-((4-(methyloxy)-3-(1,3-thiazol-2-yl)phenyl)methyl)ethanamine], for which the EC50 is ≤ 10 µM.

Take `COc1ccc([C@@H](C)NCc2ccc(OC)c(-c3cnccn3)c2)cc1` [(1R)-1-(4-(methyloxy)phenyl)-N-((4-(methyloxy)-3-(2-pyrazinyl)phenyl)methyl)ethanamine]: the concentration giving a half-maximal response (EC50) was ≤ 10 µM.

With `COc1ccc([C@@H](C)NCc2ccc(OC)c(-c3cccnc3)c2)cc1` [(1R)-1-(4-(methyloxy)phenyl)-N-((4-(methyloxy)-3-(3-pyridinyl)phenyl)methyl)ethanamine], the concentration giving a half-maximal response (EC50) was ≤ 10 µM.

Regarding `COc1ccc([C@@H](C)NCc2ccc(OC)c(-c3ccsc3)c2)cc1` [(1R)-1-(4-(methyloxy)phenyl)-N-((4-(methyloxy)-3-(3-thienyl)phenyl)methyl)ethanamine], the EC50 was ≤ 10 µM.

Regarding `COc1ccc([C@@H](C)NCc2ccc(OC)c(-c3cncnc3)c2)cc1` [(1R)-1-(4-(methyloxy)phenyl)-N-((4-(methyloxy)-3-(5-pyrimidinyl)phenyl)methyl)ethanamine], the EC50 was ≤ 10 µM.

For the molecule `Cc1ccc([C@@H](C)NCc2cccc(-c3ccccn3)c2)cc1` [(1R)-1-(4-methylphenyl)-N-((3-(2-pyridinyl)phenyl)methyl)ethanamine], the half-maximal effective concentration (EC50) was ≤ 10 µM.

As for `Cc1ccc([C@@H](C)NCc2cccc(-c3ccc(C)nc3)c2)cc1` [(1R)-1-(4-methylphenyl)-N-((3-(6-methyl-3-pyridinyl)phenyl)methyl)ethanamine], the concentration for a half-maximal effect (EC50) was ≤ 10 µM.

With `C[C@@H](NCc1cccc(-c2cnccn2)c1)c1ccccc1` [(1R)-1-phenyl-N-((3-(2-pyrazinyl)phenyl)methyl)ethanamine], the half-maximal effective concentration (EC50) is ≤ 10 µM.

Turning to `C[C@@H](NCc1cccc(-c2ccccn2)c1)c1ccccc1` [(1R)-1-phenyl-N-((3-(2-pyridinyl)phenyl)methyl)ethanamine], the concentration for a half-maximal effect (EC50) was ≤ 10 µM.

Regarding `C[C@@H](NCc1ccc(N2CCCC2)cc1)c1ccccc1` [(1R)-1-phenyl-N-((4-(1-pyrrolidinyl)phenyl)methyl)ethanamine], the concentration for a half-maximal effect (EC50) is ≤ 10 µM.

For the molecule `C[C@@H](NCc1ccc(OCC(F)(F)F)c(-c2ccc(C(F)(F)F)cc2)c1)c1ccccc1` [(1R)-1-phenyl-N-((6-((2,2,2-trifluoroethyl)oxy)-4′-(trifluoromethyl)-1,1′-biphenyl-3-yl)methyl)ethanamine], the half-maximal effective concentration (EC50) was ≤ 10 µM.

In the case of `COc1ccc(CN[C@H](C)c2ccccc2)cc1-c1ccnc(Cl)c1` [(1R)-N-(3-(2-chloropyrid-4-yl)-4-methoxyphenyl)methyl-N-1-phenylethylamine], the EC50 is ≤ 10 µM.

`COc1cccc([C@@H](C)NCc2cccc(-c3ccccc3F)c2)c1` [(1R)-N-((2′-fluoro-1,1′-biphenyl-3-yl)methyl)-1-(3-(methyloxy)phenyl)ethanamine]: the concentration giving a half-maximal response (EC50) is ≤ 10 µM.

For the molecule `COc1ccc([C@@H](C)NCc2cccc(-c3ccccc3F)c2)cc1` [(1R)-N-((2′-fluoro-1,1′-biphenyl-3-yl)methyl)-1-(4-(methyloxy)phenyl)ethanamine], the EC50 is ≤ 10 µM.

For `Cc1ccc([C@@H](C)NCc2cccc(-c3ccccc3F)c2)cc1` [(1R)-N-((2′-fluoro-1,1′-biphenyl-3-yl)methyl)-1-(4-methylphenyl)ethanamine], the EC50 was ≤ 10 µM.

For the molecule `COc1ccc([C@@H](C)NCc2cccc(-c3ccccc3C)c2)cc1` [(1R)-N-((2′-methyl-1,1′-biphenyl-3-yl)methyl)-1-(4-(methyloxy)phenyl)ethanamine], the EC50 was ≤ 10 µM.

As for `Cc1ccc([C@@H](C)NCc2cccc(-c3ccccc3C)c2)cc1` [(1R)-N-((2′-methyl-1,1′-biphenyl-3-yl)methyl)-1-(4-methylphenyl)ethanamine], the half-maximal effective concentration (EC50) is ≤ 10 µM.

`COc1ccc([C@@H](C)NCc2cccc(-c3ccc4c(c3)OCO4)c2)cc1` [(1R)-N-((3-(1,3-benzodioxol-5-yl)phenyl)methyl)-1-(4-(methyloxy)phenyl)ethanamine]: the 50% effective concentration (EC50) is ≤ 10 µM.

As to `Cc1ccc([C@@H](C)NCc2cccc(-c3ccc4c(c3)OCO4)c2)cc1` [(1R)-N-((3-(1,3-benzodioxol-5-yl)phenyl)methyl)-1-(4-methylphenyl)ethanamine], the EC50 was ≤ 10 µM.

Take `C[C@@H](NCc1cccc(-c2ccc3c(c2)OCO3)c1)c1ccccc1` [(1R)-N-((3-(1,3-benzodioxol-5-yl)phenyl)methyl)-1-phenylethanamine]: the EC50 was ≤ 10 µM.

Consider `COc1ccc(CN[C@H](C)c2cccc3ccccc23)cc1-c1nc2ccccc2s1` [(1R)-N-((3-(1,3-benzothiazol-2-yl)-4-(methyloxy)phenyl)methyl)-1-(1-naphthalenyl)ethanamine], for which the concentration giving a half-maximal response (EC50) is ≤ 10 µM.

As to `COc1cccc([C@@H](C)NCc2ccc(OC)c(-c3nc4ccccc4s3)c2)c1` [(1R)-N-((3-(1,3-benzothiazol-2-yl)-4-(methyloxy)phenyl)methyl)-1-(3-(methyloxy)phenyl)ethanamine], the 50% effective concentration (EC50) is ≤ 10 µM.

For the molecule `COc1ccc(CN[C@H](C)c2ccccc2)cc1-c1nc2ccccc2s1` [(1R)-N-((3-(1,3-benzothiazol-2-yl)-4-(methyloxy)phenyl)methyl)-1-phenylethanamine], the EC50 is ≤ 10 µM.

Turning to `COc1ccc(CN[C@H](C)c2cccc3ccccc23)cc1-c1ccc2ocnc2c1` [(1R)-N-((3-(1,3-benzoxazol-5-yl)-4-(methyloxy)phenyl)methyl)-1-(1-naphthalenyl)ethanamine], the concentration giving a half-maximal response (EC50) was ≤ 10 µM.

On to `COc1ccc(CN[C@H](C)c2cccc3ccccc23)cc1-c1ccc2c(ccn2CC2CC2)c1` [(1R)-N-((3-(1-(cyclopropylmethyl)-1H-indol-5-yl)-4-(methyloxy)phenyl)methyl)-1-(1-naphthalenyl)ethanamine], for which the EC50 is ≤ 10 µM.
